Active and inactive are the calls of the source. The rule behind the calls is not given here.
Legend:
Type in all cases: functional, cell-based
[1] = Cytotoxicity against mouse EN2 cells after 72 hrs by MTT assay; details: EN2, 72 h
EN2 [2] = experiment: Cytotoxicity against mouse EN2 cells after 15 mins by MTT assay
EN2 [3] = experiment: Cytotoxicity against mouse EN2 cells after 5 mins by MTT assay
[4] = Cytotoxicity against mouse EN2 cells after 24 hrs by MTT assay; details: EN2, 24 h
[5] = Cell cycle arrest in mouse EN2 cells assessed as accumulation at G1 phase after 2 hrs of incubation measured after 24 hrs relative to control
EN2 [6] = experiment: Cytotoxicity against mouse EN2 cells after 10 mins by MTT assay
[7] = Cytotoxicity against mouse EN2 cells after 2 hrs of incubation measured after 6 days by clonogenic assay
[8] = Cell cycle arrest in mouse EN2 cells assessed as accumulation at G1 phase after 24 hrs by flow cytometry relative to control
[9] = Cell cycle arrest in mouse EN2 cells assessed as accumulation at G1 phase after 24 hrs by flow cytometry; details: EN2, 24 h
[10] = Cell cycle arrest in mouse EN2 cells assessed as accumulation at G1 phase at 0.4 uM after 12 hrs by flow cytometry relative to control
[11] = Cytotoxicity against mouse EN2 cells after 2 hrs of incubation measured after 2 days by MTT assay
[12] = Cytotoxicity against mouse EN2 cells after 24 hrs by cell-count assay; details: EN2, 24 h
[13] = Cytotoxicity against mouse EN2 cells at 50 uM after 24 hrs by clonogenic assay; details: EN2, 24 h
[14] = Cytotoxicity against mouse EN2 cells after 2 hrs of incubation measured after 24 hrs by cell-count assay
[15] = Cell cycle arrest in mouse EN2 cells assessed as accumulation at G1 phase at 0.4 uM after 24 to 48 hrs by flow cytometry relative to control
[16] = Cell cycle arrest in mouse EN2 cells assessed as accumulation at S phase after 48 hrs by flow cytometry relative to control
[17] = Cytotoxicity against mouse EN2 cells after 24 hrs by clonogenic assay; details: EN2, 24 h
[18] = Cell cycle arrest in mouse EN2 cells assessed as accumulation at S phase after 24 hrs by flow cytometry relative to control

Row | Structure (SMILES) | IC50 [1] [µM] | IC50 [4] [µM] | Activity [8] | IC50 [9] [nM] | IC50 [12] [µM] | further results
1 | C[C@H]1[C@H](O[C@H]2O[C@@H]3O[C@]4(C)CC[C@H]5[C@H](C)CC[C@@H]([C@H]2C)[C@@]35O4)O[C@@H]2O[C@]3(C)CC[C@H]4[C@H](C)CC[C@@H]1[C@@]24O3 [listing 1 of 2 here] | 99.8 |  |  |  |  | 
2 | C[C@@H]1CC[C@@H]2[C@]34OO[C@](C)(CC[C@@H]13)O[C@H]4OC(=O)[C@@]21CO1 | 12.7 |  |  |  |  | 
3 | C[C@@H]1CC[C@@H]2[C@]34OO[C@](C)(CC[C@@H]13)O[C@H]4OC(=O)[C@]21CO1 | > 100 |  |  |  |  | 
4 | C[C@H]1[C@H](O[C@H]2O[C@@H]3O[C@]4(C)CC[C@H]5[C@H](C)CC[C@@H]([C@H]2C)[C@@]35OO4)O[C@@H]2O[C@]3(C)CC[C@H]4[C@H](C)CC[C@@H]1[C@@]24OO3 | 0.11 | 0.35 | Active | 50 | 0.54 | Activity (EN2 [2]): Active; Activity (EN2 [3]): Active; Activity [5]: Dose-dependent effect; IC50 [5]: 1000 nM; Activity (EN2 [6]): Active; IC50 [7]: 55.6 µM; Activity [10]: Active; IC50 [11]: 3.6 µM; IC50 [13]: 1000 nM; IC50 [14]: 9.3 µM; Activity [15]: inactive
5 | C[C@H]1[C@H](O[C@H]2O[C@@H]3O[C@]4(C)CC[C@H]5[C@H](C)CC[C@@H]([C@H]2C)[C@@]35O4)O[C@@H]2O[C@]3(C)CC[C@H]4[C@H](C)CC[C@@H]1[C@@]24O3 [listing 2 of 2 here] | 8.9 |  |  |  |  | 
6 | C[C@@H]1CC[C@H]2[C@@H](C)C(=O)O[C@@H]3O[C@@]4(C)CC[C@@H]1[C@]32O4 [DEOXYARTEMISININ] | 111 |  |  |  |  | 
7 | C[C@@H]1CC[C@H]2[C@@H](C)C(=O)O[C@@H]3O[C@@]4(C)CC[C@@H]1[C@]32OO4 [ARTEMISININ] | 0.98 | 11.5 | inactive | 1000 | 30 | Activity [16]: inactive; IC50 [17]: > 50 µM; Activity [18]: Dose-dependent effect
8 | C[C@H]1[C@@H](O[C@H]2O[C@@H]3O[C@]4(C)CC[C@H]5[C@H](C)CC[C@@H]([C@H]2C)[C@@]35OO4)O[C@@H]2O[C@]3(C)CC[C@H]4[C@H](C)CC[C@@H]1[C@@]24OO3 | 2 | 7.2 | Active | 1000 | 8.9 | Activity (EN2 [2]): Active; Activity (EN2 [3]): Active; Activity (EN2 [6]): Active; IC50 [17]: > 50 µM

Source: ChEMBL document CHEMBL1145693, “Stereochemistry-dependent cytotoxicity of some artemisinin derivatives” (J Nat Prod, 1997)
